Laboratory results: patent US20050136006A1, “Quantitative assay of the angiogenic and antiangiogenic activity of a test molecule” (Government of the U.S.A.,represented by the Secretary, …, priority 2002, published 2005)
Where “and” joins values, the source holds several entries; their conditions need not be identical. Identical values can stand only once.

Experiments:
[1] = tested on: endothelial cell proliferation in the CAM; experiment: CAM-XTT cell proliferation assay, spectrophotometrical absorbance; assay type: in vivo, chicken; conditions: FGF 2.0 μg/mL disc; systemic 100 μM Fumagillin or 3 mg/mL LM609; relative to FGF + 0.1% DMSO carrier
Description: Ten 10-day old eggs were divided into four groups and prepared as in Example 1. The eggs received (A) filter disks saturated with a vehicle solution (0.1% bovine serum albumin (BSA)/phosphate-buffered saline (PBS)) and systemic injection of a carrier solution (0.1% DMSO), (B) filter disks saturated with a stimulator solution (2.0 μg/mL FGF) and systemic injection of carrier solution (0.1% DMSO), (C) filter disks saturated with a stimulator solution (2.0 μg/mL FGF) and systemic injection of an inhibitor (100 μM Fumagillin), or (D) filter disks saturated with a stimulator solution (2.0 μg/mL FGF) and systemic injection of an inhibitor (3 mg/mL LM609). […]
XTT is a tetrazolium salt, which is reduced within the mitochondria of metabolically active cells to form a colored formazan dye. The amount of formazan dye produced is quantitatively measured by spectrophotometrical absorbance (e.g., by an ELISA plate reader) at 450-500 nm. […]
5 mL of XTT labeling reagent and 0.1 mL electron coupling reagent were mixed together and 30 μL of the mixture was applied onto the CAM disk via pipette. […] At Day 13, the disks were harvested for light photomicroscopy and the mean spectrophotometrical absorbance at 450 nm was measured (reference wavelength 620 nm (Titertek Multiskan Ascent Plate Reader)).

[2] = tested on: filter discs and associated CAM tissue; experiment: CAM assay scored from light microscopic photographs by blinded observers; assay type: in vivo, chicken; parameters: scale not given here; conditions: for Score: individual discs
Description: However, instead of using laser confocal microscopy to determine an FVD value for a test region of interest, the filter discs and associated CAM tissue were photographed under light microscopy. The light microscopic photographs were evaluated independently by three blinded observers, all experts in the study of angiogenesis. […] If the blinded observer felt that a disc had too much hemorrhage or artifact to make an accurate assessment of angiogenesis, it was eliminated from that observer's assessment (represented by a “-” in Tables 2-4).

[3] = tested on: chorioallantoic membrane tissue of an embryonated chicken egg; experiment: Modified CAM assay, fluorescent vascular density (FVD) by laser confocal microscopy after FITC-Dextran injection; assay type: in vivo; parameters: FVD Group Mean / FVD: scale not given here; conditions: for FVD: individual eggs
Description: Eighteen 10-day-old embryonated chicken eggs were obtained. A window was made in the shell of each egg. The chorioallantoic membranes were dropped to allow placement of a filter paper disc saturated with either basic fibroblast growth factor (bFGF) (1 μg/ml), as an angiogenic stimulator, or with a control solution (Clonetics EBM-2 media, Bio-Whittaker, Walersville, Md.). Twenty-four hours were allowed to elapse and a vessel was cannulated in each egg. Embryos that had received a filter disc saturated with bFGF then received a systemic injection of either Fumagillin (5 μg/egg, Calbiochem, San Diego, Calif.) in 0.1% dimethyl sulfoxide (DMSO) (Group A, n=3), or an injection of 0.1% DMSO carrier alone (Group B, n=5). Fumagillin is an organic compound with established antiangiogenic effects (see, e.g., Ingber et al., Nature, 348:555-557 (1990)). Embryos that had received a filter disc saturated with the control molecule received 0. 1% DMSO carrier injected systemically (Group C, n=10).
Forty-eight hours were allowed to elapse, and all eggs then received a systemic injection of fluorescein isothiocyanate (FITC)-Dextran (1 mg/ml), which was allowed to circulate for 30 minutes. Filter discs and associated CAM tissue (i.e., the region of interest) were excised from the egg and preserved in 10% formalin. The filter disc and region of interest were then laid out on a glass microscope slide and viewed using a laser confocal microscope (LSM 510 Laser Scanning Microscope, Carl Zeiss, Inc., Thronwood, N.Y.). The filter disc and region of interest were stimulated with an argon laser emitting at a wavelength of 488 nm. The resultant excitation was read using fluorescence filters at wavelengths of 505 nm and greater. The image was captured using LSM 5 Pascal software (Carl Zeiss, Inc.), through a microscope objective of 1.25×. The capture image data was formatted as 1024 pixels wide by 1024 pixels long, resulting in an overall image of 1,048,576 pixels, each with a brightness measured on a scale from 0 to 255. Multiple cross-sectional images were taken along a three-dimensional z-axis at 200 micron intervals through each filter disc and region of interest from each egg. Each filter disc and region of interest was thereby determined to have a fluorescent vascular density reflective of the density of vasculature of the CAM tissue associated with the filter disc. One filter disc in Group C was eliminated from analysis owing to gross extravasation of fluorescein, rendering it unreadable (represented by “-” in Table 1).

[4] = Table 2, one blinded observer, Group A: bFGF disc + Fumagillin 5 μg/egg
[5] = Table 3, one blinded observer, Group A: bFGF disc + Fumagillin 5 μg/egg
[6] = Table 4, one blinded observer, Group A: bFGF disc + Fumagillin 5 μg/egg
[7] = Table 2, one blinded observer, Group B: bFGF disc + 0.1% DMSO carrier
[8] = Table 3, one blinded observer, Group B: bFGF disc + 0.1% DMSO carrier
[9] = Table 4, one blinded observer, Group B: bFGF disc + 0.1% DMSO carrier

| Compound | effect on spectrophotometrical absorbance (450 nm) of FGF-stimulated specimens [1] | Score Group Mean [2, 4] | Score [2, 4] | Score Group Mean [2, 5] | Score [2, 5] | Score Group Mean [2, 6] | Score [2, 6] | FVD ([3]; Treatment Group A: bFGF (1 μg/ml) filter disc, systemic Fumagillin 5 μg/egg in 0.1% DMSO, 48 h) | FVD Group Mean ([3]; Treatment Group A: bFGF (1 μg/ml) filter disc, systemic Fumagillin 5 μg/egg in 0.1% DMSO, n=3) | effect on fluorescent vascular density of bFGF-stimulated specimens ([3]; systemic injection, on average, relative to bFGF stimulation + control molecule (Group B)) | Score Group Mean [2, 7] | Score [2, 7] | Score Group Mean [2, 8] | Score [2, 8] | Score Group Mean [2, 9] | Score [2, 9] | FVD ([3]; Treatment Group B: bFGF (1 μg/ml) filter disc, systemic 0.1% DMSO carrier alone) | FVD Group Mean ([3]; Treatment Group B: bFGF (1 μg/ml) filter disc, systemic 0.1% DMSO carrier alone, n=5) |
| --- | --- | --- | --- | --- | --- | --- | --- | --- | --- | --- | --- | --- | --- | --- | --- | --- | --- | --- |
| CO[C@@H]1[C@H](OC(=O)/C=C/C=C/C=C/C=C/C(=O)O)CC[C@]2(CO2)[C@H]1[C@@]1(C)O[C@@H]1CC=C(C)C [Fumagillin] | reduced the spectrophotometrical absorbance | 2 | 2 | 2.7 | 2 and 3 (2×) | 2 | 3 and 2 and 1 | 0.0673 and 0.0533 and 1.5029 | 0.5412 | reduce the fluorescent vascular density |  |  |  |  |  |  |  |  |
| basic fibroblast growth factor [bFGF] |  |  |  |  |  |  |  |  |  |  | 1.8 | 2 (2×) and 3 and 1 (2×) | 2.4 | 2 and 3 (3×) and 1 | 2.2 | 2 (2×) and 3 (2×) and 1 | 2.5401 and 3.7715 and 1.9767 and 0.6873 and 2.6344 | 2.322 |
